Reference: patent US6627732B1, “Glutathione derivatives and their dosage forms” (Teijin Limited, priority 1998, dated 2003)

Experiments:
swine liver esterase = assay: Decomposition by swine liver esterase with and without fat emulsion (Example 22); format: in vitro ADME; conditions: for Decomposition rate constant in the absence of the fat emulsion: alcohol solution with physiological saline; for Decomposition rate constant in the presence of the fat emulsion: fat emulsion added at 15 (v/v)%
Experimental: The glutathione derivative combined with a fat emulsion was incubated with swine liver esterase to compare the resistance to decomposition.
Thereupon, the concentration of the glutathione derivatives of Comparative Examples 1 and 2 in the fat emulsion were each adjusted to 1 mg/ml.
After incubation for a fixed time in a similar manner to that in Example 19, the content of the glutathione derivative was quantitated by HPLC. As the control experiment, an alcohol solution of the glutathione derivative of Example 4, Comparative Example 1 or 2 was added to the esterase reaction mixture together with physiological saline for adjustment of the total volume, and incubated similarly and analyzed by HPLC.
(3) Since a linear disappearance curve was observed as in Example 19, each decomposition rate constant was determined and was compared, which was summarized in Table 6.

[1] = Stability in rabbit plasma; conditions: rabbit, plasma
Experimental: (1) Bovine serum albumin (hereinafter referred to as BSA), Dulbecco's phosphate buffered saline (hereinafter referred to as D-PBS), swine liver esterase, and rabbit liver esterase were purchased from Sigma, 6-week old male SD rats were purchased from Nippon SLC, and 12-week old or older male Japanese white rabbits were purchased from Ichikawaya. On the day of the incubation experiment described below, blood was drawn from the animals in the presence of heparin, and plasma was separated therefrom for use. Human plasma was obtained from normal healthy males after obtaining their consent.
(2) The glutathione derivatives described in the Examples and Comparative Examples of the present invention were incubated for a fixed time in an enzyme solution having the following composition. Acetonitrile was added to the reaction mixture to inactivate the enzyme thereby to stop the reaction. The concentration of the glutathione derivatives in the deproteinized supernatant was measured by HPLC. For each time point of the esterase enzyme experiment, the mean values from two measurement or more were determined, and for the rats and rabbits the mean values of plasma samples from three individuals were determined. For some of the experiment data, changes with time of percentages relative to initial concentration of the glutathione derivative are shown in FIGS. 2 to 4.
Rat, rabbit, and human plasma
Heparinized plasma: 30 to 40 parts
10 mg-glutathione derivative/ml-ethanol: one part (the final concentration in the reaction mixture is 250-323 μg/ml)

[2] = test system: human leukemia cell HL-60; assay: HL-60 cell differentiation induction, NBT reducing activity (Example 20); format: cell-based; conditions: 4 days
Experimental: Using the differentiation induction effect on the granulocytes or monocytes/macrophages obtained by culturing the human leukemia cell HL-60 in the presence of 9-cys-retinoic acid (9-cis-RA) or activated vitamin D3 (1α, 25(OH)2D3), and in the coexistence of the glutathione derivatives of Examples and the Comparative Examples of the present invention, the growth-promotion activity was tested.
(1) HL-60 cells used were purchased from the cell bank (Japanese Cancer Research Resource Bank, Cell No. JCRBOO85). In accordance with a standard method, the lyophilized cell stocks that were thawed before the start of the experiment and subcultured were used.
Subculturing was carried out by centrifuging (1500 rpm, 5 minutes) the cells in suspension culture and recovering and by diluting it in a fresh culture liquid at a concentration of about 1/100 (1 to 2×10^4 cells/ml). As the culture liquid, an RPMI 1640 medium containing 10% fetal bovine serum was used.
(2) The cells subcultured in (1) were recovered by centrifugation (1500 rpm, 5 minutes), and were dispersed in the culture liquid at 2×10^4 cells/ml, which were plated on a 24-well culture plate at 1 ml/well. To this system were added the glutathione derivatives of Example 4, Example 11, Comparative Example 1 and Comparative Example 2 and a differentiation induction substance (9-cis-RA or 1α, 25(OH)2D3). Thus, 1 μl per well each of an ethanol solution of the differentiation induction substances 9-cis-RA and 1α, 25(OH)2D3 were added at 5×10^−6 M and 2×10^−6 M, respectively. Then, 1 μl per well each of ethanol solutions of the glutathione derivatives at 1×10^−4 M to 1×10^−2 M was added. As the solvent treatment for the control, 1 μl of ethanol per well was added in stead of the glutathione derivative, and as the single treatment of glutathione derivatives, 1 μl of ethanol per well was added in stead of the differentiation induction substance. After culturing at 37° C. and 5% CO2 for 4 days, the cells were recovered by centrifugation (1500 rpm, 5 minutes).
(3) The measurement of a nitroblue tetrazolium (NBT) reducing activity which is often used for the evaluation of differentiation induction effects on monocytes/macrophages or granulocytic cells was carried out according to the following procedure. Thus, the cells recovered by centrifugation in (2) were suspended in a fresh culture medium, and then NBT was added thereto to […] and 12-O-tetradecanoyl phorbol-13-acetate to 100 nM. After incubating at 37° C. for 25 minutes, cytospin samples were prepared. After air drying, the cells were subjected to Kernechtrot stain, and 500 cells per sample were examined under alight microscope to determine the ratio of the NBT reduction activity-positive cells.
(4) The result of the experiment in which glutathione derivatives at 10^−7 to 10^−5 M were treated together with a differentiation induction substances is shown in Table 4. For a single treatment of each glutathione derivative up to 10^−5 M, no increases in the NBT reducing activity was observed. In a combined treatment of a glutathione derivative and a differentiation induction substance, an enhanced ratio of the NBT reduction activity-positive cells relative to the single treatment with a differentiation induction substance was observed depending on the concentration of the glutathione derivative. There were no major differences observed in the strength of effects between the glutathione derivatives of Examples 4 and 11 and Comparative Examples 1, and 2.

[3] = compound 10^−5 M, Solvent control (EtOH), no differentiation induction substance
[4] = compound 10^−5 M, with 1α,25(OH)2D3 (2 × 10^−9 M)
[5] = compound 10^−5 M, with 9-cis-RA (5 × 10^−9 M)
[6] = compound 10^−6 M, Solvent control (EtOH), no differentiation induction substance
[7] = compound 10^−6 M, with 1α,25(OH)2D3 (2 × 10^−9 M)
[8] = compound 10^−6 M, with 9-cis-RA (5 × 10^−9 M)
[9] = compound 10^−7 M, Solvent control (EtOH), no differentiation induction substance
[10] = compound 10^−7 M, with 1α,25(OH)2D3 (2 × 10^−9 M)
[11] = compound 10^−7 M, with 9-cis-RA (5 × 10^−9 M)

SMILES | Ratio of decomposition rate constant (in the presence of the fat emulsion/physiological saline) (swine liver esterase) | Decomposition rate constant in the absence of the fat emulsion (swine liver esterase) | Decomposition rate constant in the presence of the fat emulsion (swine liver esterase) | Half life in rabbit plasma [1] | Ratio of NBT reduction activity-positive cells [2, 3] | Ratio of NBT reduction activity-positive cells [2, 4] | Ratio of NBT reduction activity-positive cells [2, 5] | Ratio of NBT reduction activity-positive cells [2, 6] | Ratio of NBT reduction activity-positive cells [2, 7] | Ratio of NBT reduction activity-positive cells [2, 8] | Ratio of NBT reduction activity-positive cells [2, 9] | Ratio of NBT reduction activity-positive cells [2, 10] | Ratio of NBT reduction activity-positive cells [2, 11]
CCCCCCCCOC(=O)[C@H](NC(=O)[C@H](CSCc1ccccc1)NC(=O)CC[C@H](N)C(=O)OCC)c1ccccc1.Cl [Comparative Example 2, Glu(Cys(Bzl)-D-Phg-O(Octyl))-O(Et)hydrochloride, reference compound] | 0.454 | 3.638 × 10^−2 /unit/min | 1.650 × 10^−2 /unit/min | 3.97 h | 0.6% | 18.2% | 33.2% | 0.4% | 9.3% | 15.2% | 0.2% | 4.6% | 7.4%
CCOC(=O)[C@@H](N)CCC(=O)N[C@@H](CSCc1ccccc1)C(=O)N[C@@H](C(=O)OCC)c1ccccc1.Cl [Comparative Example 1, Glu(Cys(Bzl)-D-Phg-O(Et))-O(Et)hydrochloride, reference compound] | 0.609 | 1.206 × 10^−2 /unit/min | 7.343 × 10^−3 /unit/min | 6.53 h | 0.4% | 13.0% | 18.8% | 0.2% | 7.6% | 10.1% | 0.2% | 5.4% | 6.3%
CCCCCCCCCCCCCCCCOC(=O)[C@@H](N)CCC(=O)N[C@@H](CSCc1ccccc1)C(=O)N[C@@H](C(=O)OCC)c1ccccc1.Cl [Example 4, Glu(Cys(Bzl)-D-Phg-OEt)-O(Hexadecyl)hydrochloride] | 0.185 | 1.100 × 10^−4 /unit/min | 2.033 × 10^−5 /unit/min | 22.05 h | 0.2% | 31.3% | 18.0% | 0.2% | 10.3% | 10.4% | 0.2% | 5.7% | 6.7%
